According to US7014858B2, “Use methods of treating acne and telangiectasia” (CollaGenex Pharmaceuticals, Inc., priority 2001, dated 2006):
Counter-ions that a name gives are not always drawn.

Columns and labels:
[1] = test system: moderate facial acne; assay: Clinical study of doxycycline hyclate 20 mg tablets twice daily in moderate acne: lesion counts; assay type: in vivo, human; conditions: 20 mg tablets twice a day
Protocol: Effects of Doxycycline Hyclate 20 mg (Dermastat) Tablets Administered Twice Daily for the Treatment of Moderate Acne
• Multi-center, randomized double-blind, placebo-controlled; • Sixty patients enrolled (30 doxycycline and 30 placebo); • Six month duration of the study. • Patients received medication twice daily, approximately 12 hours apart (placebo and drug are identical in appearance.) Inclusion Criteria: • Healthy post-pubescent males and females (age ≧18) with moderate facial acne: • Comedones 6 to 200; • Inflammatory lesions 10 to 75 (papules and pustules, less than or equal to 5 nodules); • Females tested negative for pregnancy and were non-lactating; • Females maintained appropriate birth control; • Patients signed an Informed Consent Form; • No Accutane treatment for 6 months prior to baseline. Exclusion Criteria: • Use of hormonal contraception 6 months prior to baseline or during study; • Use of topical acne treatments within 6 weeks of baseline or during study; • Use of systemic antibiotics within 6 weeks of baseline or during study; • Use of investigational drugs within 90 days of baseline; • Use of any acne treatments during study. […]

[2] = cited from earlier work
[3] = test system: neutrophil chemotaxis induced by bacterial chemotactic factors; conditions: oral, total daily dose 1000 mg; cited from earlier work
[4] = test system: acne; conditions: sub-antibiotic doses; cited from earlier work
[5] = Plasma antibiotic threshold levels based on steady-state pharmacokinetics

CCO.C[C@H]1c2cccc(O)c2C(O)=C2C(=O)[C@]3(O)C(O)=C(C(N)=O)C(=O)[C@@H](N(C)C)[C@@H]3[C@@H](O)[C@@H]21.C[C@H]1c2cccc(O)c2C(O)=C2C(=O)[C@]3(O)C(O)=C(C(N)=O)C(=O)[C@@H](N(C)C)[C@@H]3[C@@H](O)[C@@H]21.Cl.Cl.O [doxycycline hyclate]
reduction in the number of comedones (in words) [1]: significant reduction

CN(C)c1ccc(O)c2c1C[C@H]1C[C@H]3[C@H](N(C)C)C(O)=C(C(N)=O)C(=O)[C@@]3(O)C(O)=C1C2=O [minocycline HCl]
minocycline serum levels (range) ([2]; single dose of two 100 mg tablets, adult humans, over a period of an hour): 0.74 to 4.45 µg/mL
minocycline serum level (average) ([2]; single dose of two 100 mg tablets, adult humans): 2.24 µg/mL

CN(C)[C@@H]1C(O)=C(C(N)=O)C(=O)[C@@]2(O)C(O)=C3C(=O)c4c(O)cccc4[C@@](C)(O)[C@H]3C[C@@H]12 [tetracycline HCl]
peak plasma concentration ([2]; 250 mg every six hours over a twenty-four hour period): approximately 3 μg/ml
serum concentration level ([2]; 500 mg every six hours over a twenty-four hour period): 4000 to 5000 ng/mL

CN(C)[C@@H]1C(O)=C(C(N)=O)C(=O)[C@@]2(O)C(O)=C3C(=O)c4c(O)cccc4[C@@](C)(O)[C@H]3C[C@@H]12 [tetracycline]
neutrophil chemotaxis [3]: inhibition
clinical effect on acne [4]: no clinical effect
plasma antibiotic threshold level [5]: 0.5 µg/mL
